From publication PMC7586797, “Phase 1 Study to Evaluate the Effect of the Investigational Anticancer Agent Sapanisertib on the QTc Interval in Patients With Advanced Solid Tumors” (Clinical Pharmacology in Drug Development, 2020)
Values joined by “and” are separate entries in the source; they are usually repeats but may differ in a detail not shown here. Equal entries are not always repeated. Where two headings read alike, the source gives them in different places.

What was measured:
[1] = test system: breast cancer‐ resistance protein; set-up: method as in Takeda data on file; settings: in vitro; ref Takeda data on file; cited from earlier work
CYP and UGT enzymes = test system: CYP and UGT enzymes; set-up: method as in Takeda, data on file; settings: in vitro reaction phenotyping; ref Takeda, data on file; cited from earlier work
CYP enzymes = settings: in vitro, clinically relevant concentrations; cited from earlier work
monkey = test system: monkey; set-up: method as in data on file; settings: ref data on file, cited from earlier work
[2] = Plasma pharmacokinetics after single 40 mg oral dose (LC-MS/MS, noncompartmental); format: in vivo, human; settings: 40 mg single oral dose; for AUC(0-inf) / Cmax / Tmax / half-life: human, po, 40 mg
Protocol: (§1) On cycle 1 day 1, triplicate ECGs and plasma samples for PK were collected from patients ≤15 minutes prior to dosing and at 15 minutes; 30 minutes; and 1‐, 1.5‐, 2‐, 2.5‐, 3‐, 4‐, 6‐, 8‐, and 10‐hour time points after receiving a single oral dose of 40‐mg sapanisertib. The Holter recorders and ECG leads were removed from patients after collection of the 10‐hour time point ECG on day 1, following which patients were furloughed from site. Additional collections of ECGs and plasma samples for PK were conducted at 24 (cycle 1 day 2) and 48 hours (cycle 1 day 3) after dosing. After the first week, that is, cycle 1 day 8, patients had the option to continue to receive treatment with sapanisertib at a dose of 30 mg once weekly in continuous 28‐day cycles until disease progression, unacceptable toxicity, withdrawal of consent, or completion of the 12‐month maximum study duration.
Plasma samples were analyzed for sapanisertib using a validated liquid chromatography with tandem mass spectrometry method with deuterated sapanisertib used as the internal standard. Multiple reactant monitoring was performed using a positive electrospray method for the mass transitions (m/z) of 310.0 to 268.1 for sapanisertib and 317.0 to 269.1 for deuterated sapanisertib. A Shimadzu high‐pressure liquid chromatography system and Sciex API 4000 tandem mass spectrometry system were used with an Agilent Eclipse plus C18, 50 × 4.6 mm, 3.50‐µm column. For extraction, 50 µL of diluent (0.1% formic acid in acetonitrile/water, 50:50, v/v) and 20 µL of internal standard solution (0.5 µg/mL in diluent) were added to 50 µL of ethylenediaminetetraacetic acid plasma followed by vortex mixing. Plasma proteins were precipitated by adding 500 µL of 0.2% formic acid in acetonitrile followed by vortex mixing for 2 minutes and centrifugation for 5 minutes. A 40‐µL aliquot of the supernatant was transferred to a high‐pressure liquid chromatography vial containing 400 µL of reconstitution solution (10 mM ammonium formate and 10 mM citric acid in acetonitrile/water, 20:80, v/v). Injection volume was 10 µL. A gradient mobile phase (from 20% to 98%) was used, composed of mobile phase A: 0.1% formic/4 mM ammonium formate in water and mobile phase B: 0.1% formic acid and 4 mM ammonium formate in acetonitrile/water 98:2, v/v). The sapanisertib retention time was 1.7 minutes. The dynamic range of the assay was 1 to 1000 ng/mL. Assay accuracy expressed as %bias for the quality control samples ranged from –4.0% to –2.7% and assay precision expressed as percentage coefficient of variation (%CV) for quality control samples, ranged from 3.0% to 9.5% in plasma.
(§2) PK parameters were calculated by noncompartmental methods using WinNonLin Professional version 6.1 (Certara, Princeton, New Jersey). The PK analysis population was defined as all patients who received at least 1 dose of sapanisertib and had sufficient concentration‐time data to calculate ≥1 PK parameters. The safety population included all patients who received ≥1 dose of sapanisertib, according to the National Cancer Institute Common Terminology Criteria for Adverse Events, version 4.03.

[3] = test system: patients with advanced solid tumors; test: Safety: adverse events (NCI CTCAE v4.03); format: in vivo, human
Protocol: as §1, §2

[4] = set-up: method as in data on file; settings: in vitro; ref data on file; cited from earlier work

CC(C)n1nc(-c2ccc3oc(N)nc3c2)c2c(N)ncnc21 [sapanisertib]
IC50 [1]: 51.9 µM
CYP enzymes participating in oxidative metabolism (CYP and UGT enzymes): CYP1A2, 3A4, and 2C19
Inhibition or induction of CYP enzymes (CYP enzymes): did not inhibit or induce CYP enzymes
Estimated free Cmax (monkey; 0.5 mg/kg): 230 nM
Electrocardiographic changes (monkey; single- or multiple-dose, up to 0.5 mg/kg): no remarkable electrocardiographic changes
CL (apparent clearance), Geometric mean (%CV) ([2]; empty stomach): 16.1 L/h and 16.1 (46.3) L/h
CL (apparent clearance), Mean (SD) ([2]; empty stomach): 18.3 (8.5) L/h
CL (apparent clearance), Median (range) ([2]; empty stomach): 18.0 (3.1–41.8) L/h
AUC(0-inf) ([2]; empty stomach, read-out: AUC∞, Geometric mean (%CV)): 2480 ng·h/mL
AUC(0-inf) ([2]; empty stomach, read-out: AUC∞, Mean (SD)): 2990 ng·h/mL
AUC(0-inf) ([2]; empty stomach, read-out: AUC∞, Median (range)): 2220 ng·h/mL
Cmax ([2]; empty stomach, read-out: Cmax, Geometric mean (%CV)): 297 ng/mL
Cmax ([2]; empty stomach, read-out: Cmax, Mean (SD)): 337 ng/mL
Cmax ([2]; empty stomach, read-out: Cmax, Median (range)): 317 ng/mL
Tmax ([2]; empty stomach, read-out: Tmax, Geometric mean (%CV)): 1.73 h
Tmax ([2]; empty stomach, read-out: Tmax, Mean (SD)): 2.51 h
Tmax ([2]; empty stomach, read-out: Tmax, Median (range)): 1.52 h
half-life ([2]; no unit in table (hours), read-out: T1/2 (terminal disposition half-life), Geometric mean (%CV) (converted)): 9.06 h
half-life ([2]; no unit in table (hours), read-out: T1/2 (terminal disposition half-life), Mean (SD) (converted)): 9.48 h
half-life ([2]; no unit in table (hours), read-out: T1/2 (terminal disposition half-life), Median (range) (converted)): 9.07 h
half-life ([2]; standard deviation 2.9 hours, read-out: Mean plasma half-life (converted)): 9.5 h
Patients who died during the study ([3]; N = 44, neither death considered related to study drug): Two
AE of special interest: asthenic conditions ([3]; human, in vivo): 61%
AE of special interest: hyperglycemia ([3]; human, in vivo): 18%
AE of special interest: mucosal inflammation ([3]; human, in vivo): 25%
AE of special interest: rash ([3]; human, in vivo): 20%
AE of special interest: renal insufficiency ([3]; human, in vivo): 5%
Dehydration, grade ≥3 ([3]; human, in vivo): 5%
Diarrhea, grade ≥3 ([3]; human, in vivo): 5%
Fatigue, any grade ([3]; human, in vivo): 61%
Fatigue, grade ≥3 ([3]; human, in vivo): 16%
Hyperglycemia, grade ≥3 ([3]; human, in vivo): 5%
Nausea, any grade ([3]; human, in vivo): 80%
Patients who experienced adverse events ([3]; human, in vivo): 98%
Patients with grade ≥3 AEs ([3]; human, in vivo): 59%
Stomatitis, grade ≥3 ([3]; human, in vivo): 5%
Vomiting, any grade ([3]; human, in vivo): 57%
Patients who discontinued study due to AEs ([3]; in vivo): Four
Bound to human plasma proteins [4]: 70.5%
